Results on eight compounds are retold here after patent US10301286B2, “Piperazine derivative” (Astellas Pharma Inc., priority 2015, dated 2019).

Structures are written as SMILES. Counter-ions that a name gives are not always drawn.

One experiment has as its target human MC4 receptor (Homo sapiens (Human), UniProt P32245). Briefly: Human MC receptor activation, cAMP production in cells expressing human MC4 receptor. It is filed as cell-based. Particulars: FreeStyle 293-F cells transiently expressing human MC4 receptor, α-MSH maximum = 100%. From the text: (1) Construction of Human MC Receptor-Expressing Vector
A human MC4 receptor gene (GenBank Accession No.: NM_005912.2), a human MC1 receptor gene (GenBank Accession No.: NM_002386.3), or a human MC3 receptor gene (GenBank Accession No.: NM_019888.3) was introduced into an expression vector pcDNA™ 3.1/V5-His TOPO (registered trademark) (Thermo Fisher Scientific Inc.).
(2) Construction of Cells Transiently Expressing Human MC Receptor
(§1) An expression vector for a human MC4, MC1, or MC3 receptor was introduced into FreeStyle™ 293-F cell (Thermo Fisher Scientific Inc., product number: R790-07). For the introduction, electroporation was employed. That is, 1×10^7 FreeStyle™ 293-F cell were suspended in 80 μL of an electroporation buffer (Thermo Fisher Scientific Inc., product number: B201-100), and 20 μg of the expression vector was added thereto. The resultant was put into a cuvette (OC-100 Processing Assembly, MaxCyte, Inc.) and electroporated with MaxCyte SIX (registered trademark) (MaxCyte, Inc.). The cells were cultured over one day, suspended in a Cell Banker (registered trademark) 1 (JUJI FIELD Inc.), product number: BLC-1), and stored frozen until their use.
(§2) (3) Measurement of Amount of cAMP Produced
Measurement was carried out by using a LANCE (registered trademark) Ultra cAMP Kit (PerkinElmer, Inc.) in accordance with the attached instructions. That is, after dissolution in DMSO, the test compound (a final concentration of 1 pM to 30 μM) diluted with an assay buffer (Hank's balanced salt solution, 5 mM 4-(2-hydroxyethyl)-1-piperazineethanesulfonic acid (HEPES), 0.5 mM 3-isobutyl-1-methylxanthine (IBMX), 0.1% bovine serum albumin, pH 7.4), or α-MSH (Bachem Inc., a final concentration of 1 pM to 30 μM) was added to OptiPlate-384 (PerkinElmer, Inc.). Furthermore, a suspension of cells transiently expressing the human MC4, MC1, or MC3 receptor prepared by using the assay buffer was added thereto at 1,000 cells/well, followed by being left to stand at room temperature for about 1 hour. Thereafter, an Eu-cAMP tracer solution and an ULight™-anti-cAMP solution were added thereto, followed by being left to stand at room temperature for about 1 hour. The amount of cAMP was calculated using EnVision (registered trademark) (PerkinElmer Inc.).
(§3) For the agonistic activity, an efficacy (EC50 (μM)) was calculated by a non-linear regression method with a Sigmoid-Emax model, by defining the maximum reaction with α-MSH as 100% and the reaction with the vehicle alone as 0%, respectively.

In another experiment the test system is Male Wistar rats. Briefly: Action on rat urethral pressure (phenylephrine-induced increase). It is filed as in vivo. Particulars: anesthetized rats, intravenous, dose giving 40% inhibition of phenylephrine-induced urethral pressure ΔAUC, read-out: ID40. As to the method: The present Test Example was carried out by partially modifying the technique reported as a testing system for evaluating an urethral resistance-reducing action (European Journal of Pharmacology, 679, 127-131 (2012)). Male Wistar rats (Charles River Laboratories Japan, Inc.) were anesthetized with urethane (1.2 g/kg ip), and placed in a supine position. The lower abdominal portion was midline-incised, and thus, the bladder was exposed. The bladder apex was incised, a microchip pressure transducer catheter (3.5 Fr, Millar) was inserted into the inside of the urethra, and then placed therein. In addition, a cannula for administration of a drug was placed into the femoral vein. After stabilization of the urethral pressure, phenylephrine hydrochloride (Sigma-Aldrich, 30 μg/kg) was administered intravenously to induce an increase in the urethral pressure. At an interval of about 30 minutes, this operation was repeated twice or more to confirm the stability of the reaction of a phenylephrine hydrochloride-induced increase in the urethral pressure. Thereafter, a test compound (dissolved in 20% dimethyl acetamide, 10% Cremophor (registered trademark) and 70% physiological saline) was intravenously administered, and then 5 minutes later, phenylephrine hydrochloride was administered. The procedure of administration of the test compound and administration of phenylephrine hydrochloride was repeated at an interval of about 30 minutes, and 3 to 5 doses of the test compound was evaluated (the test compound was administered at increasing doses). The data of reaction was introduced into a personal computer through PowerLab (registered trademark) (ADInstruments, Inc.), and analyzed with LabChart (registered trademark) (ADInstruments, Inc.). For the evaluation, the value of the area under the urethral pressure (mmHg·s) for one minute before and after administration of phenylephrine hydrochloride was determined to calculate the difference between before and after administration of phenylephrine hydrochloride (ΔAUC value). By taking the ΔAUC value obtained before administering the test compound as 100%, the ratio (reaction rate) of the ΔAUC value of the test compound at each dose was calculated. The rate at which the obtained reaction rate becomes 60% (40% as an inhibition rate) was defined as ID40, and the ID40 values of the test compounds were calculated by non-linear regression.

Another experiment deals with rat MC4 receptor (Rattus norvegicus (Rat), UniProt P70596). Briefly: Rat MC4 receptor activation, cAMP production in cells expressing rat MC4 receptor. It is filed as cell-based. The note with it: FreeStyle 293-F cells transiently expressing rat MC4 receptor, α-MSH maximum = 100%.
Sequence of rat MC4 receptor (P70596 whole entry): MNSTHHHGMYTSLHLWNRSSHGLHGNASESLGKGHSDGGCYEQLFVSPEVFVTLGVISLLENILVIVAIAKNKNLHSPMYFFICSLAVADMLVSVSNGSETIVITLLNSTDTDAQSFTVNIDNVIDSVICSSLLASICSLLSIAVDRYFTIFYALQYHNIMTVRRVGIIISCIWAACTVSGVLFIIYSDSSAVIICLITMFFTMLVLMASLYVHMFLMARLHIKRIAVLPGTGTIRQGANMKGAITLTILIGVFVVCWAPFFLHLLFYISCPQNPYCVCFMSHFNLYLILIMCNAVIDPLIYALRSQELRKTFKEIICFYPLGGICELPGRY
Description: (1) Construction of Rat MC4 Receptor-Expressing Vector
A rat MC4 receptor gene (GenBank Accession No.: NM_013099.2) was introduced into an expression vector pcDNA™ 3.1/V5-His TOPO (registered trademark) (Thermo Fisher Scientific Inc.).
(2) Construction of Cells Transiently Expressing Rat MC4 Receptor
as §1, with “rat MC4” for “human MC4, MC1, or MC3”, “Inc.).” for “Inc., product number: R790-07).”, “Inc.),” for “Inc., product number: B201-100),”, “STX” for “SIX”, “Inc.),” for “Inc.), product number: BLC-1),”, “until” for “until their”
as §2
Measurement was carried out in accordance with the attached instructions, using a LANCE (registered trademark) Ultra cAMP Kit (PerkinElmer, Inc.). That is, after dissolution in DMSO, the test compound (a final concentration of 1 pM to 30 μM) diluted with an assay buffer (Hank's balanced salt solution, 5 mM HEPES, 0.5 mM IBMX, 0.1% bovine serum albumin, pH 7.4), or α-MSH (Bachem Inc., a final concentration of 1 pM to 30 μM) was added to OptiPlate-384 (PerkinElmer, Inc.). Furthermore, a suspension of cells transiently expressing the rat MC4 receptor, that had been prepared using the assay buffer, was added thereto at 1,000 cells/well, followed by being left to stand at room temperature for about 1 hour. Thereafter, an Eu-cAMP tracer solution and an ULight™-anti-cAMP solution were added thereto, followed by being left to stand at room temperature for about 1 hour. The amount of cAMP was calculated using EnVision (registered trademark) (PerkinElmer Inc.).
as §3
A general note: Changes in cAMP serve as a functional read-out for many G protein-coupled receptors.

Sequence of human MC4 receptor (P32245 whole entry): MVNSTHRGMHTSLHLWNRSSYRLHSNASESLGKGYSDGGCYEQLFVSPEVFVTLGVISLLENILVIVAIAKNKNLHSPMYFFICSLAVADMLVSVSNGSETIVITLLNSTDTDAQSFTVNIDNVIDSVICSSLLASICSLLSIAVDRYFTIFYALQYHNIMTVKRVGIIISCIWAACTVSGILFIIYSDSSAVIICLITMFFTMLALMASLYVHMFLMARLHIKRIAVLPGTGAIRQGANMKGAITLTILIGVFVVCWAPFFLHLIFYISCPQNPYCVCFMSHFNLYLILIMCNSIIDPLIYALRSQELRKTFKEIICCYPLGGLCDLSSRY

The term EC50 denotes the concentration that produces a half-maximal response. Low values mean a more potent agent, high ones a less potent agent. Turning to `C[C@H]1CN([C@@H](Cc2ccc3c(c2)CCC3)C(=O)O)CCN1C(=O)[C@@H]1CN(C(C)(C)C)C[C@H]1c1ccc(F)cc1F` [Example 5, (2S)-2-[(3S)-4-{[(3S,4R)-1-tert-butyl-4-(2,4-difluorophenyl)pyrrolidin-3-yl]carbonyl}-3-methylpiperazin-1-yl]-3-(2,3-dihydro-1H-inden-5-yl)propanoic acid dihydrochloride], the figures for the EC50 on human MC4 receptor and at rat MC4 receptor were 0.025 µM and 0.026 µM, respectively. Besides, the ED40 in the experiment on Male Wistar rats amounted to 0.13 mg/kg.
On to `Cc1cc(F)c(C[C@@H](C(=O)O)N2CCN(C(=O)[C@@H]3CN(C(C)(C)C)C[C@H]3c3ccc(Cl)cc3F)[C@@H](C)C2)c(F)c1` [Example 76], for which the EC50 was 0.00096 µM at human MC4 receptor and 0.0017 µM on rat MC4 receptor. The ED40 in the experiment on Male Wistar rats was found to be 0.0047 mg/kg.
Regarding `Cc1ccc(C[C@@H](C(=O)O)N2CCN(C(=O)[C@@H]3CN(C4CCOCC4)C[C@H]3c3ccc(Cl)cc3F)[C@@H](C)C2)c(F)c1` [Example 87, (2S)-2-[(3S)-4-{[(3S,4R)-4-(4-chloro-2-fluorophenyl)-1-(tetrahydro-2H-pyran-4-yl)pyrrolidin-3-yl]carbonyl}-3-methylpiperazin-1-yl]-3-(2-fluoro-4-methylphenyl)propanoic acid dihydrochloride], the EC50 on human MC4 receptor turned out to be 0.011 µM; at rat MC4 receptor, 0.021 µM. In addition, the ED40 in the experiment with Male Wistar rats is 0.04 mg/kg.
As to `CCC[C@H]1CN([C@@H](Cc2ccc3ccccc3c2)C(=O)O)CCN1C(=O)[C@@H]1CN(C(C)(C)C)C[C@H]1c1ccc(F)cc1F` [Example 9], the EC50 at human MC4 receptor turned out to be 0.0032 µM; at rat MC4 receptor, 0.0026 µM. For the same compound, in the experiment with Male Wistar rats, the ED40 worked out at 0.047 mg/kg.
Taken in the same sequence, the figures for `Cc1cc(C)c(C[C@@H](C(=O)O)N2CCN(C(=O)[C@@H]3CN(C4CCOCC4)C[C@H]3c3ccc(Cl)cc3F)[C@@H](C)C2)c(F)c1` [Example 88] were 0.012 µM, 0.011 µM and 0.04 mg/kg.
Taken in the same sequence, the figures for `Cc1cc(C)c(C[C@@H](C(=O)O)N2CCN(C(=O)[C@@H]3CN(C(C)(C)C)C[C@H]3c3ccc(Cl)cc3F)[C@@H](C)C2)c(C)c1` [Example 89] were 0.003 µM, 0.0031 µM and 0.024 mg/kg.
On to `Cc1ccc(C[C@@H](C(=O)O)N2CCN(C(=O)[C@@H]3CN(C(C)(C)C)C[C@H]3c3ccc(Cl)cc3F)[C@@H](C)C2)cc1` [Example 11], for which the EC50 on human MC4 receptor is 0.017 µM; on rat MC4 receptor, 0.021 µM. Besides, the ED40 in the experiment with Male Wistar rats is 0.088 mg/kg.
For `Cc1ccc(C[C@@H](C(=O)O)N2CCN(C(=O)[C@@H]3CN(C(C)(C)C)C[C@H]3c3ccc(Cl)cc3F)[C@@H](C)C2)c(F)c1` [Example 4, (2S)-2-[(3S)-4-{[(3S,4R)-1-tert-butyl-4-(4-chloro-2-fluorophenyl)pyrrolidin-3-yl]carbonyl}-3-methylpiperazin-1-yl]-3-(2-fluoro-4-methylphenyl)propanoic acid dihydrochloride] the same measures were 0.0015 µM, 0.0013 µM and 0.0094 mg/kg.
